The source of these data is ChEMBL document CHEMBL5154642, “Development of [18F]MIPS15692, a radiotracer with in vitro proof-of-concept for the imaging of MER tyrosine kinase (MERTK) in neuroinflammatory disease” (Eur J Med Chem, 2021).

Series [1] concerns the target T1, Tyrosine-protein kinase Mer (Mus musculus, UniProt Q60805).
T1 sequence (Q60805 whole entry): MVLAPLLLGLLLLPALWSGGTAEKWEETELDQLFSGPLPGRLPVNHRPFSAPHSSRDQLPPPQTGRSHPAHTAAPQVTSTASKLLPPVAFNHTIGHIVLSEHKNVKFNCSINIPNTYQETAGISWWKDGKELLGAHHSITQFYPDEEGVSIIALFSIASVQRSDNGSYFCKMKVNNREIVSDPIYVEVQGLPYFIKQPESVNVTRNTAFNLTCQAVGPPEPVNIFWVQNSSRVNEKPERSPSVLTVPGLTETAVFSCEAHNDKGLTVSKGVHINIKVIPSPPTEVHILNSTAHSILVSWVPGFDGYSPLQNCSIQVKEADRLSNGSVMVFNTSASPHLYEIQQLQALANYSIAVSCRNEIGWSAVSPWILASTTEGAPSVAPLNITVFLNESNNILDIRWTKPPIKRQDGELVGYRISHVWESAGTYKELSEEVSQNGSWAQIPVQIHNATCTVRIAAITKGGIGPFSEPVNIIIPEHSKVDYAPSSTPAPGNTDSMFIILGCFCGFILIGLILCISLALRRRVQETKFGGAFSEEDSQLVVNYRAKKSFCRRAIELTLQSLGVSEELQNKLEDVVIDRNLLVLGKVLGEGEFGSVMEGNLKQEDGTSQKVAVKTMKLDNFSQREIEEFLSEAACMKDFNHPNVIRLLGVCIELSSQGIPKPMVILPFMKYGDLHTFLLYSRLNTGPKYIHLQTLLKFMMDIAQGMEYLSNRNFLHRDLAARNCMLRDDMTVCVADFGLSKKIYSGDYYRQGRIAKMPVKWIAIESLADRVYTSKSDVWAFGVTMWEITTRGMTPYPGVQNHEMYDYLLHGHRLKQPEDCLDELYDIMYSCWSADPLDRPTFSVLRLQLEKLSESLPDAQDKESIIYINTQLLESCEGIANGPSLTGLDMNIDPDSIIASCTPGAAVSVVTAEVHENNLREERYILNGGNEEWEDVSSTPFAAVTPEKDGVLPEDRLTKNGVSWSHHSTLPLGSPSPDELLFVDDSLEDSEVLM
Put plainly: Binding affinity to MERTK in cuprizone-challenged C57BL/6 mouse whole brain assessed as dissociation constant at 18.1 nM by autoradiography. Type of series: tissue-based.

A short description of series [2]: Drug uptake in heart of cuprizone-challenged C57BL/6 mouse at 4.4 mg/kg, iv by PET imaging. The settings on record: in vivo. Type of series: ADME, organism-based.
A short description of series [3]: Drug uptake in liver of cuprizone-challenged C57BL/6 mouse at 4.4 mg/kg, iv by PET imaging. Type of series: ADME, organism-based. The note with it: in vivo.
Series [4] in a line: Retention time of the compound by HPLC analysis. Type of series: physicochemical.
Series [5] concerns the target T1, Tyrosine-protein kinase Mer. The series can be described thus: Binding affinity to MERTK in cuprizone-challenged C57BL/6 mouse brain CC/HC region assessed as dissociation constant at 18.1 nM by autoradiography. Type of series: tissue-based.
Series [6] can be described thus: Retention time of the compound by UV-Vis spectroscopy analysis. Type of series: physicochemical.
The nature of series [7]: Drug uptake in brain of cuprizone-challenged C57BL/6 mouse at 4.4 mg/kg, iv by PET imaging measured upto 2 mins. It is filed as ADME, organism-based. The note with it: in vivo.
Series [8] is described as follows: Drug uptake in Swiss outbred mouse brain assessed as time required to reach peak value at 3 mg/kg, iv measured after 60 mins by LC-MS/MS analysis. Type of series: ADME, organism-based.
Series [9] is described as follows: Unbound brain-to-plasma concentration ratio in Swiss outbred mouse at 4.4 mg/kg, iv measured after 2 hrs. It is filed as ADME, organism-based. The settings on record: read-out: K(p,uu,brain).
The target of series [10] is T2, Tyrosine-protein kinase Mer (Mus musculus) (UniProt Q60805).
T2 sequence (whole entry): T1 sequence (Q60805 whole entry)
Put plainly: Binding affinity to MERTK in cuprizone-challenged C57BL/6 mouse whole brain assessed as maximum binding at 18.1 nM by autoradiography. It is filed as tissue-based. The settings on record: tested as the 18F-labelled form.

Series [11] addresses T2, Tyrosine-protein kinase Mer (Mus musculus). The series can be described thus: Binding affinity to MERTK in cuprizone-challenged C57BL/6 mouse brain CC/HC region assessed as maximum binding at 18.1 nM by autoradiography. It is filed as tissue-based. The settings on record: tested as the 18F-labelled form.

Bounds are passed on as bounds.

On to `CCCCNc1ncc(C(=O)NC2CCN(CCC[18F])CC2)c(N[C@H]2CC[C@H](O)CC2)n1`, for which the Kd (usually the concentration at which binding is half-saturated) in series [1] stood at 12.6 nM; in series [5], 19.7 nM. The Drug uptake entry in series [2] is recorded as “<= 0.24%”; in series [3], “<= 0.24%”; in series [7], 0.023%. In addition, the figures for the Retention_time in series [4] and in series [6] were 18.57 min and 18.8 min, respectively.

On to `CCCCNc1ncc(C(=O)NC2CCN(CCF)CC2)c(N[C@H]2CC[C@H](O)CC2)n1`, for which the Tmax – broadly, the time at which the peak concentration occurs – in series [8] came out at 15 min.

In the case of `CCCCNc1ncc(C(=O)NC2CCN(CCCF)CC2)c(N[C@H]2CC[C@H](O)CC2)n1`, in [9], the Kp uu at 2 h is greater than 1. Also, the Bmax is 422 fmol/mg in series [10] and 896 fmol/mg in [11]. Further, the Tmax in series [8] is 15 min.
